Results on one compound are retold here after US20220249415A1, “COMPOSITION OF AZELAIC ACID HAVING ADIPOSE TRIGLYCERIDE HYDROLYSIS EFFECT” (Korea University Research and Business Foundation, priority 2018, published 2022).

Data set [1] deals with 3T3-L1 adipocytes in which the Olfr544 gene was knocked-down. Briefly: cAMP, PKA activity and HSL phosphorylation in adipocytes in which Olfr544 gene was knocked-down. Format: cell-based, mouse. The conditions noted are these: Olfr544 shRNA transfected adipocytes treated with azelaic acid for 2 hours. The text has this:
After the Olfr544 gene was knocked-down in the mouse adipocytes, cAMP assay was confirmed by the method described in Example 4, PKA activity was confirmed by the method described in Example 5, and phosphorylation of HSL protein was confirmed by the method described in Example 6.

The subject of data set [2] is 3T3-L1 adipocytes. Briefly: IP-one assay (ELISA) in 3T3-L1 adipocytes. It counts as cell-based, mouse. Particulars: 50 μM azelaic acid, 18 hours. On the procedure: Therefore, changes in concentrations of cAMP, IP-one (metabolite of IP3), and calcium, which are second messengers by azelaic acid corresponding to the Olfr544 ligand, in 3T3-L1 adipocytes were measured. Since IP3 has low stability to thereby be easily decomposed to IP-one, an amount of intracellular IP-One (metabolite of IP3) was quantified instead of IP3.
IP-one assay is a method of measuring a concentration of IP3 corresponding to a second messenger formed by phospholipolysis by phospholipase in a GPCR signal transduction process to measure an ability to regulate protein kinase C (PKC) signal transduction. In the present experiment, 1×10^4 3T3-L1 adipocytes were seeded in each well of the 96-well plate and differentiated, and then treated with 50 μM azelaic acid for 18 hours. Then, in order to measure IP3, the concentration of intracellular IP-one (metabolite of IP3, a surrogate marker) of which an error was small was measured using an IP-one ELISA Assay kit (Cisbio, France).
Background: ELISA stands for enzyme-linked immunosorbent assay.

Data set [3] addresses T1, OR2S2 (Homo sapiens, UniProt Q9NQN1).
T1 construct: endogenous in cells; host or cells: HepG2
T1 sequence (Q9NQN1 1-319): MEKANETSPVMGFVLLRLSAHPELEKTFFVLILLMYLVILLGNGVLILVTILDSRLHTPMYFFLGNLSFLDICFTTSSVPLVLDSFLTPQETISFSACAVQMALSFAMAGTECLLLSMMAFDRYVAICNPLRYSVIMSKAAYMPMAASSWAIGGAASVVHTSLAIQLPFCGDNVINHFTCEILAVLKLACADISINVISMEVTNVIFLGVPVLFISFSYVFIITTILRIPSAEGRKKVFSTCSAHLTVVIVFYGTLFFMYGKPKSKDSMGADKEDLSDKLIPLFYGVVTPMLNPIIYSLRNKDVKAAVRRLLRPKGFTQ
Briefly: siRNA knock-down of OR2S2 in HepG2 cells, fatty acid oxidation-related gene expression. Format: cell-based. The conditions noted are these: HepG2 cells during knock-down of OR2S2. From the text:
The gene expression of OR1E1, OR1K1, OR2K2, OR2S2, OR13C5, and OR51E2, corresponding to the top 6 receptors among 10 human olfactory receptors selected to be expressed in both adipose tissue and liver tissue while interacting with azelaic acid, was knocked down with siRNA in human-derived liver cell and adipocyte lines, namely HepG2 cells and hAMSC cells, respectively. Here, siRNAs that were used were OR1E2 siRNA (sc-93932), OR1K2 (sc-92810), OR2K2 (sc-92852), OR2S2 (sc-92505), OR13C5 (sc-92899), and OR51E2 (sc-76265), purchased from Santa Cruz Biotechnology Inc. (Dallas, Tx USA).
After knock-down treatment, the cell lines were treated with azelaic acid, and triglyceride hydrolysis and fatty acid oxidation-related gene expression in HepG2 cells as a human-derived liver cell line and hAMSC cells as a human-derived adipocyte line were measured.

Data set [4] deals with 3T3-L1 adipocytes. As to the kind of experiment: Glycerol release (triglyceride hydrolysis) from 3T3-L1 adipocytes. It counts as cell-based, mouse. Particulars: 50 μM azelaic acid, 2 hours. On the procedure:
Further, in order to confirm whether or not azelaic acid has an effect of hydrolyzing triglycerides, a release amount of glycerol corresponding to a product of triglyceride hydrolysis was measured.

Data set [5] relates to hAMSC cells. As to the kind of experiment: qPCR of anti-obesity gene in hAMSC cells, with OR2K2 knock-down. Format: cell-based, human. On the procedure: In-vitro equivalence confirmation: HepG2 cells, which are a human liver tissue cell line, and hAMSC cells, which are a human adipocyte line, were treated with azelaic acid and the anti-obesity gene was measured through a qPCR method.
For orientation: Real-time PCR tracks product formation cycle by cycle.

Data set [6] has as its system ob/ob mice. Briefly: Anti-obesity effect, oral administration to genetically obesity-induced ob/ob mice. The conditions noted are these: 50 mg/kg oral. It counts as in vivo, mouse. Here is the method: After orally administering azelaic acid to an ob/ob mouse (Samtako, Seoul, Korea) corresponding to a genetically obesity-induced mouse at a concentration of 50 mg/kg, a degree of obesity thereof was compared with that of a control group to which azelaic acid was not administered. More specifically, an increase in body weight, a feed intake amount, body fat, blood indices, blood lipid indices, a weight of liver tissue, ALT and AST corresponding to hepatotoxicity indices, and energy metabolism were analyzed. Changes in body weight in azelaic acid administration group and a control group were observed once a week for an experiment period of 6 weeks. Body fats (total fat, subcutaneous fat, and abdominal fat) of mice in the azelaic acid administration group to which azelaic acid was orally administered for 6 weeks and a control group were measured through micro CT image analysis. The subcutaneous fat was quantified for the entire site of the mouse, and the abdominal fat was calculated by quantifying an amount of abdominal fat at the 15th to 20th lumbar spine sites of the mouse. In order to evaluate an effect on mouse lipid metabolism of azelaic acid in the administration group to which azelaic acid was orally administered for 6 weeks and the control group, concentrations of blood triglycerides, adiponectin, and cholesterol were measured. Weights of the liver tissue, ALT, and AST of the mice in the azelaic acid administration group to which azelaic acid was orally administered for 6 weeks and the control group were measured.

Data set [7] concerns protein kinase A (PKA). Briefly: PKA kinase activity in 3T3-L1 adipocytes. Format: cell-based, mouse. Particulars: azelaic acid 50 μM, 2 hours. The text has this: A representative protein regulating protein activities associated with signal transduction depending on a change in concentration of intracellular cAMP in the tissue cells is protein kinase A (PKA). Under general conditions, since an enzyme active site is blocked by a regulatory domain site of protein, a PKA activity is suppressed, but when the concentration of cAMP is increased, cAMP is bound to a regulatory site of PKA to expose an active site, such that the PKA activity is increased. In the present experiment, a change in PKA activity by azelaic acid was measured. The PKA activity was measured using an Enzo PKA kinase activity kit (Cat. #ADI-EKS-390A, Enzo Life Sciences, Korea).

In data set [8] the test system is hAMSC cells. Briefly: Treatment of human adipocyte line hAMSC with azelaic acid. It counts as cell-based. Particulars: azelaic acid 50 μM. On the procedure:
The anti-obesity effect was confirmed by treating a human adipocyte line, namely hAMSC cells (Cell Bio, CEFO, Seoul Korea), with azelaic acid (50 μM).

For the compound `O=C(O)CCCCCCCC(=O)O` [azelaic acid, nonanedioic acid], the cAMP-PKA-HSL signaling pathway entry in data set [1] was “all inactivated”. Further, the “concentration of IP3 (IP-one)” value in data set [2] is “did not affect”. In addition, the “expression of fatty acid oxidation-related genes (PPARa, CTP1, Acox2) upon treatment with azelaic acid” value in data set [3] is given as “did not change”. Further, the “glycerol (product of triglyceride hydrolysis) increased as compared to the control” value in data set [4] was determined as 46.7%. Besides, the “expression of a triglyceride hydrolysis gene (qPCR)” value in data set [5] (adipocytes (hAMSC) treated with azelaic acid) is given as “increased”. In addition, the “effect on gene expression when the OR2K2 gene was knocked down” value in data set [5] (human adipocyte line (hAMSC)) is “disappear”. For the same compound, in data set [6] (6 weeks), the “concentration of blood cholesterol” value was “significantly decreased”, the “concentration of blood triglyceride” value is given as “significantly decreased” and the “weight of the liver tissue” value is on record as “decreased”. The body weight result in data set [6] (6 weeks, on and after the first week, vs control group) is “significantly decreased”. Moreover, in data set [6] (6 weeks, vs control group), the “ALT (hepatotoxicity index)” value is listed as “no large difference”, the “AST (hepatotoxicity index)” value is on record as “no large difference”, the “abdominal fat (micro CT)” value was “significantly decreased” and the “subcutaneous fat (micro CT)” value is given as “significantly decreased”. In data set [6] (6 weeks, vs control group), the “total fat (micro CT)” value is reported as “significantly decreased”. Also, the feed intake amount entry in data set [6] (final week, vs control group) is reported as “no significant difference”. The “PKA activity increased as compared to a control” value in data set [7] turned out to be 113.8%. Besides, in data set [8], the cAMP-PKA signaling entry is on record as “activated”, the calcium concentration result was “no change”, the “inositol phosphate (IP) concentration” value is listed as “no change” and the release of glycerol entry was “promoted”.
